One experiment addresses Histamine H1 receptor (Homo sapiens, UniProt P35367). The experiment can be described thus: Binding affinity to histamine H1 receptor (unknown origin) assessed as inhibition constant.
The target of experiment [1] is T1, 5-hydroxytryptamine receptor 2C (Homo sapiens) (UniProt P28335).
T1 sequence (whole entry): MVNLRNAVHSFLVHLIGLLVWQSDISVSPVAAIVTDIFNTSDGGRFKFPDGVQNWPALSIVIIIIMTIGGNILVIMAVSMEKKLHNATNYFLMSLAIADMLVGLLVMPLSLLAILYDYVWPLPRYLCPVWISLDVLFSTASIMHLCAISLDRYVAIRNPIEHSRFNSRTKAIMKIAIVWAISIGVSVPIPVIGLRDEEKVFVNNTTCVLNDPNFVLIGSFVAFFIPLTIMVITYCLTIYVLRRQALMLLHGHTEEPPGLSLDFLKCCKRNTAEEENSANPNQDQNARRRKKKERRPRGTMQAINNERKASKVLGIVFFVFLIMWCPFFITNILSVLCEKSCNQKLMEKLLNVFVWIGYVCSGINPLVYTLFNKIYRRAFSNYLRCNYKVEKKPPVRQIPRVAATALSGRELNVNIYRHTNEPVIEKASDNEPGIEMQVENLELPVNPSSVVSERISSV
The note with it: Flp-In-T-REx-293, filed as antagonist, time 1.0 hrs.

Experiment [2] deals with T2, 5-hydroxytryptamine receptor 2A (Homo sapiens, UniProt P28223). The note with it: Flp-In-T-REx-293, time 1.0 hrs.
T2 sequence (P28223 whole entry): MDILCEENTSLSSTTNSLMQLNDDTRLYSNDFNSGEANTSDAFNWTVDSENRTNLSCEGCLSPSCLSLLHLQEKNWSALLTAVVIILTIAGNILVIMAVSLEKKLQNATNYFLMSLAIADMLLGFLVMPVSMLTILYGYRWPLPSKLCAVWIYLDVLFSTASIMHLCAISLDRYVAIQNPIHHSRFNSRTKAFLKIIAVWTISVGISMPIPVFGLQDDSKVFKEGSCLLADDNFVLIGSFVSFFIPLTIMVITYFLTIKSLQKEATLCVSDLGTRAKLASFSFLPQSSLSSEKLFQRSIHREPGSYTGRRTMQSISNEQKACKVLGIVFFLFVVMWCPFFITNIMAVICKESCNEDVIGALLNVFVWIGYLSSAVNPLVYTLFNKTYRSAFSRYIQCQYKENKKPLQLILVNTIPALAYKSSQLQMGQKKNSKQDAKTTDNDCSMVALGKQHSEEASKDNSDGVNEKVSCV
In experiment [3] the target is T3, Adenosine receptor A3 (Homo sapiens) (UniProt P0DMS8).
T3 sequence (whole entry): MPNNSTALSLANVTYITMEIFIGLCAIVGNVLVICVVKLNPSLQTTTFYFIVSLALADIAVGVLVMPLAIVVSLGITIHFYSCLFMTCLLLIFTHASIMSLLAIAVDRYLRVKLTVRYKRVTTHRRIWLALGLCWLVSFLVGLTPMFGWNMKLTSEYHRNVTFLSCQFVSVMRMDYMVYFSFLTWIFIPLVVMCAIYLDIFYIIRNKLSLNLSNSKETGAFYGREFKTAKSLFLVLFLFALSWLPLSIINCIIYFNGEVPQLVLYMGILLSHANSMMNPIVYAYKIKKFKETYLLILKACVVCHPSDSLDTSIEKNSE
The experiment can be described thus: Displacement of […] from human A3AR expressed in HEK cells at 10 uM relative to control. Type of experiment: cell-based. The note with it: filed as agonist.

Experiment [4] addresses T4, 5-hydroxytryptamine receptor 2C (Homo sapiens, UniProt P28335).
T4 sequence (P28335 whole entry): T1 sequence (whole entry)
The experiment can be described thus: Displacement of [3H]-Mesulergine from human 5-HT2C expressed in Flp-In-T-REx-293 cells assessed as inhibition constant incubated for 1 hr. Type of experiment: cell-based. The note with it: read-out: Ki.

The target in the next experiment is T5, Adenosine receptor A1 (Homo sapiens, UniProt P30542).
T5 sequence (P30542 whole entry): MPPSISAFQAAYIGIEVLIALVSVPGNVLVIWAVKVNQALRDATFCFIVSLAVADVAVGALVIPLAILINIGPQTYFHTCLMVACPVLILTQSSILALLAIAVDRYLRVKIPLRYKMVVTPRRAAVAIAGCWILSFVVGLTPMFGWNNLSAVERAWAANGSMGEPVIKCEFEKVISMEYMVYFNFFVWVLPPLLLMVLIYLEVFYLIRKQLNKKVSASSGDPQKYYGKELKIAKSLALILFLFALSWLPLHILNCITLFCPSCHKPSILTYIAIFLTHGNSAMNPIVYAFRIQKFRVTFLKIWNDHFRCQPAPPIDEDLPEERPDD
The experiment can be described thus: Displacement of […] from human A1AR expressed in Flp-In-T-REx-293 cells assessed as inhibition constant. Type of experiment: cell-based.

Experiment [5] has as its target T2, 5-hydroxytryptamine receptor 2A. The experiment can be described thus: Displacement of [3H]ketanserin from human 5-HT2A receptor expressed in HEK293 cells at 10 uM incubated for 1 hr relative to control. Type of experiment: cell-based.
The target in a further experiment is Translocator protein (Homo sapiens, UniProt P30536). The experiment can be described thus: Binding affinity to TSPO (unknown origin) assessed as inhibition constant.
Translocator protein, sequence (P30536 whole entry): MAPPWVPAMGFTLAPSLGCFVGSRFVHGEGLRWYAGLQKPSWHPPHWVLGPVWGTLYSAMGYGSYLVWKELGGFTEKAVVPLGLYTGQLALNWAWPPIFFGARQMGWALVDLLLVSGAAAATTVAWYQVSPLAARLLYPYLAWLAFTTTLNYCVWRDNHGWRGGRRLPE
Experiment [6] concerns the target T2, 5-hydroxytryptamine receptor 2A. The experiment can be described thus: Binding affinity to 5HT2A receptor (unknown origin) at 10 uM relative to control.
For experiment [7], the target named is Adenosine receptor A2a (Homo sapiens) (UniProt P29274). The experiment can be described thus: Displacement of […] from human A2AR expressed in HEK cells at 10 uM relative to control. It counts as cell-based.
Adenosine receptor A2a (Homo sapiens), sequence (P29274 whole entry): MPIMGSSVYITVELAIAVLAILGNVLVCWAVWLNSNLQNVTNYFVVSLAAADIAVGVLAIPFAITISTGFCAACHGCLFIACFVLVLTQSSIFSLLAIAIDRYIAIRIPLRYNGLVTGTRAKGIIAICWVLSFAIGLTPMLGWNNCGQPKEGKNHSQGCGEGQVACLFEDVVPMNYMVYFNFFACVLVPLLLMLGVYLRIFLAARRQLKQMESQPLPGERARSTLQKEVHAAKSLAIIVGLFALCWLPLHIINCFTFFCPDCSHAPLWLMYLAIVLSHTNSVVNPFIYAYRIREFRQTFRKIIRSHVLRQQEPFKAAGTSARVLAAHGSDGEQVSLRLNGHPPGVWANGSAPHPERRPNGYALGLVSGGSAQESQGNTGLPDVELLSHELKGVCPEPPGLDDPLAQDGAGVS
A further experiment has as its target T6, Adenosine receptor A3 (Homo sapiens, UniProt P0DMS8).
T6 sequence (P0DMS8 whole entry): T3 sequence (whole entry)
The experiment can be described thus: Displacement of […] from human A3AR expressed in HEK cells assessed as inhibition constant. Type of experiment: cell-based.

Experiment [8] has as its target Beta-3 adrenergic receptor (Homo sapiens, UniProt P13945). The experiment can be described thus: Binding affinity to beta3 adrenergic receptor (unknown origin) assessed as inhibition constant.
A further experiment addresses T7, D(4) dopamine receptor (Homo sapiens, UniProt P21917).
T7 sequence (P21917 whole entry): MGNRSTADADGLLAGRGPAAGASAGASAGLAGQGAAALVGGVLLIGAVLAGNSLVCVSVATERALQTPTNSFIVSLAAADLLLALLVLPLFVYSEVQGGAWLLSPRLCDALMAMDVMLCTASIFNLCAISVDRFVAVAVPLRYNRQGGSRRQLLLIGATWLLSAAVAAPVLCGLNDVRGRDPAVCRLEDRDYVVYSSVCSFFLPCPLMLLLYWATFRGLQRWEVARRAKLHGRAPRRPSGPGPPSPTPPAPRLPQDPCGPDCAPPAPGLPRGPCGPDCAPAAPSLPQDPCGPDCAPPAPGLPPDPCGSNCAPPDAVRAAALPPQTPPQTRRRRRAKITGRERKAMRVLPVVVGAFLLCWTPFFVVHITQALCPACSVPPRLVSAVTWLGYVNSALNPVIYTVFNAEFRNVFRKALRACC
The experiment can be described thus: Binding affinity to dopamine D4 receptor (unknown origin) assessed as inhibition constant.

The target in experiment [9] is 5-hydroxytryptamine receptor 1D (Homo sapiens, UniProt P28221). The experiment can be described thus: Binding affinity to 5HT1D receptor (unknown origin) assessed as inhibition constant.
5-hydroxytryptamine receptor 1D, sequence (P28221 whole entry): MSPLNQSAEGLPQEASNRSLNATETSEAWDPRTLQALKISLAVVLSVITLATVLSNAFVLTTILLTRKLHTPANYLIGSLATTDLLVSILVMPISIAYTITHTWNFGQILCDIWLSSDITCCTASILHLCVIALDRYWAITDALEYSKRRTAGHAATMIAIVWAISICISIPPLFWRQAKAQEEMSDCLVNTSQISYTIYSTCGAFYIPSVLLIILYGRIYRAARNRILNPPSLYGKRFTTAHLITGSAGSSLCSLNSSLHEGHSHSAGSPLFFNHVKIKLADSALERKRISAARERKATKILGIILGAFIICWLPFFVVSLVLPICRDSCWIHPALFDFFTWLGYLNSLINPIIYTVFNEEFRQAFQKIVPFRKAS
Experiment [10] deals with T1, 5-hydroxytryptamine receptor 2C (Homo sapiens). The experiment can be described thus: Displacement of [3H]-Mesulergine from human 5-HT2C expressed in Flp-In-T-REx-293 cells at 10 uM incubated for 1 hr relative to control. Type of experiment: cell-based. The note with it: filed as antagonist.
The target of experiment [11] is T8, Alpha-2C adrenergic receptor (Homo sapiens, UniProt P18825).
T8 sequence (P18825 whole entry): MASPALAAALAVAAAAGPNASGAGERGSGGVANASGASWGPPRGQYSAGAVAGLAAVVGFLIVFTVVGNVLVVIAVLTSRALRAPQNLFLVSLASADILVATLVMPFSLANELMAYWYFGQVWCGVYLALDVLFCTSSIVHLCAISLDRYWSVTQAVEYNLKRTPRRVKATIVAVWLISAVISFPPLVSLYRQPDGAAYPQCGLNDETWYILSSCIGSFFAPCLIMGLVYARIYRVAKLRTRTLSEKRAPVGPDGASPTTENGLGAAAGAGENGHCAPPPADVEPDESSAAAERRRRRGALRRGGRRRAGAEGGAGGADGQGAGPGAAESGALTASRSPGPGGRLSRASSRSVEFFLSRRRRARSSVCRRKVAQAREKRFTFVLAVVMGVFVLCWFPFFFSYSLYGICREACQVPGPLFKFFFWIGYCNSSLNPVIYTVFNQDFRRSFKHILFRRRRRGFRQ
The experiment can be described thus: Binding affinity to alpha2C receptor (unknown origin) assessed as inhibition constant.

In ChEMBL document CHEMBL5625223 (Eur J Med Chem, 2023) one finds Ki, pKb and Activity data, which are given here for three compounds.

Histamine H1 receptor, sequence (P35367 whole entry): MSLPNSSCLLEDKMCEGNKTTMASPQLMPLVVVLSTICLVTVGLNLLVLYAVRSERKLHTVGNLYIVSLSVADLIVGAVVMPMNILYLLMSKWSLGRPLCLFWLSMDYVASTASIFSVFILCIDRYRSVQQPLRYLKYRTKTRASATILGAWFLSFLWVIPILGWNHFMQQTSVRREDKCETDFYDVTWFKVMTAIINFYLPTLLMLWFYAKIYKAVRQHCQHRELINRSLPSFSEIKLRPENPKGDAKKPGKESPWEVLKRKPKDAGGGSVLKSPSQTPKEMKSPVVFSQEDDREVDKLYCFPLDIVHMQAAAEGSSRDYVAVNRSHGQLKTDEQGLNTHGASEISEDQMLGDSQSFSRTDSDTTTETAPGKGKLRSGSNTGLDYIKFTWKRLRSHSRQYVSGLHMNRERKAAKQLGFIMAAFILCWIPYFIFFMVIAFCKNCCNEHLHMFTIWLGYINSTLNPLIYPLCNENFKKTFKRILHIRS
Beta-3 adrenergic receptor, sequence (P13945 whole entry): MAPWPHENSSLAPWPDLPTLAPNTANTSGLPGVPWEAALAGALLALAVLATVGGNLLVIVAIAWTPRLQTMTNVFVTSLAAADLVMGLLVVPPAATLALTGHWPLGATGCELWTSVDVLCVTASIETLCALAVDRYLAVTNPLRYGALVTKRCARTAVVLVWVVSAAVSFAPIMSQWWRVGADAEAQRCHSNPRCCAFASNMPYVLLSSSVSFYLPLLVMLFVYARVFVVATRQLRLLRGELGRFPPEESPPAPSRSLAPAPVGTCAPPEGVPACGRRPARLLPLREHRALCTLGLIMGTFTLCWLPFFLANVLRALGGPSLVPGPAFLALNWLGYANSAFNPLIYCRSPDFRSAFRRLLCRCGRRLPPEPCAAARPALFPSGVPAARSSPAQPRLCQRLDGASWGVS

`OC[C@@]12C[C@@H]1[C@@H](n1cnc3c(N[C@@H](C4CCC4)C4CC4)nc(I)nc31)[C@H](O)[C@@H]2O`: the Ki on Histamine H1 receptor turned out to be 2100 nM; in experiment [4], 552 nM; at Adenosine receptor A1, 63.9 nM. Further, the negative-log Kb (pKb) in experiment [1] was 6.83; in [2] it was under 5. Moreover, the Activity is 42% in experiment [3] and 26% in experiment [5].
In the case of `OC[C@@]12C[C@@H]1[C@@H](n1cnc3c(NC(C4CCC4)C4CCC4)nc(I)nc31)[C@H](O)[C@@H]2O`, the Ki at Translocator protein stood at 2100 nM; at Adenosine receptor A1, 204 nM; at Adenosine receptor A3, 34300 nM. For the same compound, the Activity in [6] worked out at 16%; in [7] it was 37%.
Take `CCSC[C@@]12C[C@@H]1[C@@H](n1cnc3c(NC(C4CCCC4)C4CCCC4)nc(Cl)nc31)[C@H](O)[C@@H]2O`: the Ki is 1500 nM in [8]; 3600 nM on D(4) dopamine receptor; 5200 nM in [9]; 6280 nM at Adenosine receptor A3; 2100 nM in experiment [11]. Further, the values for the Activity in experiment [7], in [5] and in [10] were -48%, 38% and 47%, respectively.
